Laboratory results taken from patent publication US10711011B2, “Substituted oxazolidines as anti-bacterial agents” (BUGWORKS RESEARCH, INC., priority 2016, dated 2020).
Where two headings read alike, the source gives them in different places.

Columns and labels:
[1] = Mouse intravenous pharmacokinetics; format: in vivo, BALB/c mice; conditions: 2 mg/kg
Experimental: (§1) To assess the Oral and Intravenous pharmacokinetic profile of Example 13, pharmacokinetics (PK) of Example 13 was characterized in BALB/c mice following single intravenous (i.v.) dose of 2 mg/kg and single escalating oral doses of 2, 10, 50 and 100 mg/kg, respectively. This study was performed following all ethical practices as laid down in the guidelines for animal care (Registration number No. 1852/PO/Rc/S/16/CPCSEA). The study was approved by the Institutional Animals Ethics Committee (IAEC) of the test facility. For IVPK in BALB/c mice, the formulation used was DMSO: PEG400: Ethanol: Water (10:20:10:60 v/v) and Example 13 administered as solution. For POPK, the formulation used was 0.1% Tween80 in 0.25% CMC and Example 13 administered as suspension through an oral gavage. The plasma (mice) samples were analyzed by LC-MS/MS. PK parameters were estimated by non-compartmental analysis in Phoenix WinNonlin 6.4 The results of the per-oral and intravenous PK study of Example 13 are presented in Table 4 and 5

[2] = Mouse oral pharmacokinetics; format: in vivo, BALB/c mice; set-up: AUC/Dose: unit not given beside the values; conditions: for Cmax/dose: in (µg/mL)/(mg/kg)
Experimental: as §1

[3] = BALB/c, mouse, plasma, iv, mice
[4] = BALB/c, mouse, plasma, mice, single oral dose 2 mg/kg
[5] = BALB/c, mouse, plasma, mice, single oral dose 10 mg/kg
[6] = BALB/c, mouse, plasma, mice, single oral dose 50 mg/kg
[7] = BALB/c, mouse, plasma, mice, single oral dose 100 mg/kg
[8] = mice, single oral dose 10 mg/kg
[9] = mice, single oral dose 50 mg/kg
[10] = mice, single oral dose 100 mg/kg

## CN1C(=O)Cc2ccc(F)c(CCNCCC3CN(c4ccc5c(n4)NC(=O)CO5)C(=O)O3)c21 (single isomer, unassigned) [Example 13, 6-(5-(2-((2-(6-fluoro-1-methyl-2-oxoindolin-7-yl)ethyl)amino)ethyl)-2-oxooxazolidin-3-yl)-2H-pyrido[3,2-b][1,4]oxazin-3(4H)-one]
[1]; BALB/c, mouse, plasma, iv, BALB/c mice, single i.v. dose of 2.0 mg/kg, read-out: systemic clearance (converted)
  clearance: 95 mL/min/kg
[1]; BALB/c, mouse, plasma, iv, BALB/c mice, single i.v. dose of 2.0 mg/kg, read-out: volume of distribution at steady state
  Vd: 13.3 L/kg
[1]; [3]
  half-life: 1.7 h
  AUC(0-inf): 352 ng·h/mL
  AUC(0-t): 352 ng·h/mL
[1]; BALB/c, mouse, plasma, iv, mice, i.v., read-out: CL (converted)
  clearance: 94.8 mL/min/kg
[1]; BALB/c, mouse, plasma, iv, mice, i.v., read-out: Vss
  Vd: 13.3 L/kg
[1]; mice, i.v.
  AUC (% Extrap): 0.002%
  Ke: 0.403 h⁻¹
  t1/2: 1.718 h
[2]; BALB/c, mouse, plasma, po, 2 mg/kg, mice, single oral dose 2 mg/kg
  Cmax: 6 ng/mL
[2]; BALB/c, mouse, plasma, po, 2 mg/kg, mice, single oral dose 2 mg/kg, read-out: AUC0-∞
  AUC(0-inf): 70 ng·h/mL
[2]; BALB/c, mouse, plasma, po, 2 mg/kg, mice, single oral dose 2 mg/kg, read-out: t1/2 (converted)
  half-life: 5.63 h
[2]; BALB/c, mouse, plasma, po, 10 mg/kg, mice, single oral dose 10 mg/kg
  Cmax: 108 ng/mL
[2]; BALB/c, mouse, plasma, po, 10 mg/kg, mice, single oral dose 10 mg/kg, read-out: AUC0-∞
  AUC(0-inf): 335 ng·h/mL
[2]; BALB/c, mouse, plasma, po, 10 mg/kg, mice, single oral dose 10 mg/kg, read-out: t1/2 (converted)
  half-life: 2.13 h
[2]; BALB/c, mouse, plasma, po, 50 mg/kg, mice, single oral dose 50 mg/kg
  Cmax: 740 ng/mL
[2]; BALB/c, mouse, plasma, po, 50 mg/kg, mice, single oral dose 50 mg/kg, read-out: AUC0-∞
  AUC(0-inf): 1970 ng·h/mL
[2]; BALB/c, mouse, plasma, po, 50 mg/kg, mice, single oral dose 50 mg/kg, read-out: t1/2 (converted)
  half-life: 1.6 h
[2]; BALB/c, mouse, plasma, po, 100 mg/kg, BALB/c mice, single oral doses of 2, 10, 50 and 100 mg/kg, read-out: AUC0-∞, range over oral doses
  AUC(0-inf): 70 to 4820 ng·h/mL
[2]; BALB/c, mouse, plasma, po, 100 mg/kg, BALB/c mice, single oral doses of 2, 10, 50 and 100 mg/kg, read-out: Cmax, range over oral doses
  Clast: 4 to 72 ng/mL
[2]; BALB/c, mouse, plasma, po, 100 mg/kg, BALB/c mice, single oral doses of 2, 10, 50 and 100 mg/kg, read-out: t1/2, range over oral doses
  half-life: 1.4 to 5.6 h
[2]; BALB/c, mouse, plasma, po, 100 mg/kg, mice, single oral dose 100 mg/kg
  Cmax: 2380 ng/mL
[2]; BALB/c, mouse, plasma, po, 100 mg/kg, mice, single oral dose 100 mg/kg, read-out: AUC0-∞
  AUC(0-inf): 4820 ng·h/mL
[2]; BALB/c, mouse, plasma, po, 100 mg/kg, mice, single oral dose 100 mg/kg, read-out: t1/2 (converted)
  half-life: 1.42 h
[2]; [4]
  AUC(0-t): 70 ng·h/mL
  Tmax: 1 h
[2]; BALB/c, mouse, plasma, mice, single oral dose 2 mg/kg, read-out: Clast
  concentration at 24 h: 4 ng/mL
[2]; [5]
  AUC(0-t): 311 ng·h/mL
  Tmax: 0.5 h
[2]; BALB/c, mouse, plasma, mice, single oral dose 10 mg/kg, read-out: Clast
  concentration at 8 h: 9 ng/mL
[2]; [6]
  AUC(0-t): 1900 ng·h/mL
  Tmax: 0.5 h
[2]; BALB/c, mouse, plasma, mice, single oral dose 50 mg/kg, read-out: Clast
  concentration at 8 h: 28 ng/mL
[2]; [7]
  AUC(0-t): 4700 ng·h/mL
  Tmax: 1 h
[2]; BALB/c, mouse, plasma, mice, single oral dose 100 mg/kg, read-out: Clast
  concentration at 8 h: 72 ng/mL
[2]; mice, single oral dose 2 mg/kg
  AUC/Dose: 0.036
  F: 20.6%
  Ke: 0.123 h⁻¹
  Tlast: 24 h
  Cmax/dose: 0.003
[2]; [8]
  AUC/Dose: 0.034
  F: 19.0%
  Ke: 0.325 h⁻¹
  Tlast: 8 h
  Cmax/dose: 0.011
[2]; [9]
  AUC/Dose: 0.039
  F: 22.3%
  Ke: 0.433 h⁻¹
  Tlast: 8 h
  Cmax/dose: 0.015
[2]; [10]
  AUC/Dose: 0.048
  F: 27.4%
  Ke: 0.489 h⁻¹
  Tlast: 8 h
  Cmax/dose: 0.024
[2]; mouse, plasma, BALB/c mice, single oral doses of 2, 10, 50 and 100 mg/kg, read-out: oral bioavailability, range over oral doses
  bioavailability: 19 to 27%
